Measurements as given in patent US9676758B2, “1-heteroaryl-indoline-4-carboxamides as modulators of GPR52 useful for the treatment or prevention of disorders related thereto” (Arena Pharmaceuticals, Inc., priority 2015, dated 2017).
pEC50: −log10 of the molar value.

Key:
[1] = Brain penetration (plasma and brain exposure); assay type: in vivo, mouse; settings: male C57BL6 mice, 60 minute time point
Description: Plasma and brain exposure were evaluated to determine the brain penetration of compounds described herein. Male C57BL6 mice were administered a single per oral (PO) dose of compound at 3 or 10 mg/kg (as a free base) formulated in 20% HPCD in 0.9% NaCl. Blood and brain samples were collected 60 minutes post-dose (n=3-6 animals). Blood was collected via cardiac puncture and stored on ice prior to the separation of plasma by centrifugation. Brains were extracted from the cranium and frozen on dry ice. Tissue samples were stored at approximately −80° C. prior to bioanalytical analysis.
Analyte plasma and brain concentrations were determined by LC/MS/MS.

recombinant GPR52 = target: T1, recombinant GPR52 (Homo sapiens, UniProt Q9Y2T5); test: HTRF cAMP assay for direct cAMP measurement; assay type: cell-based; settings: mean EC50; CHO-K1 or HEK293 cells stably expressing recombinant GPR52
T1 construct: expressed in transfected cells
Description: HTRF cAMP assays were performed using commercially available assay kits according to the manufacturer's instructions (cAMP Dynamic 2 Assay Kit; #62AM4PEJ, Cisbio Bioassays, Bedford, Mass.). CHO-K1 or HEK293 cells stably expressing recombinant GPR52 were harvested and resuspended in assay buffer (PBS containing 0.5 mM IBMX and 0.1% BSA) at a density of 1.2×10^6 cells per mL. […] Test compounds were solubilized and serially diluted in DMSO using 5-fold dilutions to generate 10-point dose response curves. These serially diluted samples were then further diluted in PBS to achieve a 2× stock. The diluted compounds were transferred to triplicate assay plates (5 μL per well to achieve the 1× final assay concentration). A positive control was included in each assay run. After one-hour incubation at room temperature, 5 μL of cAMP D2 reagent diluted in lysis buffer was added to each well, followed by 5 μL of cryptate reagent. Plates were then incubated at room temperature for one hour prior to reading. Time-resolved fluorescence measurements were collected on an HTRF-capable plate reader (e.g., EnVision® (PerkinElmer, Waltham, Mass.) or PHERAstar (BMG LABTECH, Cary, N.C.)). Counts from the plate reader were fit to the cAMP standard curve included on each plate to determine the amount of cAMP in each test well. Dose-response curves were generated from the cAMP data and analyzed using a nonlinear least squares curve-fitting program to obtain EC50 values.

male C57/BL6 mice = test: Mouse basal locomotor activity; assay type: in vivo; settings: po, 10 mg/kg P.O.
Description: To measure basal locomotor activity, male C57/BL6 mice (8-16 weeks) (Jackson Laboratories, Sacramento, Calif.) were transferred in home cages to the testing room approximately 60 minutes prior to testing. Approximately 15 minutes after arrival in the testing room, a dark cycle commenced, with lights turning off and infrared lights turning on for experimenter visibility. Thirty minutes after the lights were turned off, animals were individually weighed and administered either vehicle (20% hydroxypropyl-β-cyclodextrin) Compound 13 (1, 2, 5, 10, or 20 mg/kg P.O.), or another GPR52 agonist (10 mg/kg P.O.) and returned to home cages. Fifteen minutes later, mice were placed into locomotor cages and activity was recorded for 60 minutes.

male Sprague Dawley rats = test: Plasma prolactin levels in rats (ELISA); assay type: in vivo, rat; settings: basal prolactin release, haloperidol 0.1 and 1 mg/kg P.O., Compound 13 1, 10, and 100 mg/kg P.O., FIG. 28A
Description: Another unwanted side effect of certain antipsychotics is hyperprolactinemia. To examine prolactin levels following the administration of a GPR52 agonist, male Sprague Dawley rats (Harlan Laboratories, San Diego, Calif.) were single-housed, handled, and moved to a private housing room one week prior to testing. Rats were individually handled and sham dosed P.O. for four days prior to testing. For an assessment of haloperidol (0.1 and 1 mg/kg P.O.) and Compound 13 (1, 10, and 100 mg/kg P.O.) on basal prolactin release, rats were dosed with acidic 20% HP-β-cyclodextrin (HBCD) or compound at 3 mL/kg P.O. in their housing room 60 minutes prior to harvest. For interaction studies, rats were dosed with 20% HBCD or Compound 13 (10 mg/kg P.O.) 90 minutes prior to harvest, and additionally with 20% HBCD vehicle or haloperidol (0.3 and 1 mg/kg P.O.) 60 minutes prior to harvest. Rats were individually taken to the harvest room, and trunk blood was collected into 4 mL EDTA tubes following live decapitation. Samples were stored on wet ice until collection was complete, then spun in a cooling centrifuge at 2400 rpm for 20 minutes. Plasma was collected and frozen for subsequent analysis using a Rat Prolactin ELISA kit (ALPCO Diagnostics: Cat#55-PRLRT-E01).
Briefly, frozen plasma was thawed on ice and mixed prior to initiation of the ELISA. Twenty-five microliters of sample plasma along with serially diluted standards (lyophilized purified rat prolactin diluted with rat prolactin calibrator/sample diluent), and calibrator/sample diluent used as a blank were placed in a 96-well plate provided with the ELISA kit. Samples, blank, and standards were measured in duplicate. […] Fifty microliters of stop solution (2M hydrochloric acid) was added to the wells prior to reading on a 96-well plate reader (SpectraMax® 340PC; Molecular Devices, Sunnyvale, Calif.) at […]. The quantity of prolactin in each sample was calculated using a standard curve.

male Sprague-Dawley rats = test: Catalepsy (vertical grid) in rats; assay type: in vivo, rat; settings: Compound 13 5-100 mg/kg P.O., haloperidol 0.1, 0.3, or 1 mg/kg S.C., 45 minutes post-dose
Description: Catalepsy is used as a model for detecting extrapyramidal side effects of antipsychotic drugs. […] The rats were removed from home cages 45 minutes later and placed on a vertical stainless steel grid, and the latency to move both forepaws from their starting position was measured for a maximum of 30 seconds. The test was repeated three times consecutively.
Catalepsy is expressed as the average latency to move both forepaws over the three trials. Latency increased in the rats administered haloperidol (see FIG. 27B), but was unchanged in rats administered Compound 13 (see FIG. 27A).

T1 sequence (Q9Y2T5 whole entry): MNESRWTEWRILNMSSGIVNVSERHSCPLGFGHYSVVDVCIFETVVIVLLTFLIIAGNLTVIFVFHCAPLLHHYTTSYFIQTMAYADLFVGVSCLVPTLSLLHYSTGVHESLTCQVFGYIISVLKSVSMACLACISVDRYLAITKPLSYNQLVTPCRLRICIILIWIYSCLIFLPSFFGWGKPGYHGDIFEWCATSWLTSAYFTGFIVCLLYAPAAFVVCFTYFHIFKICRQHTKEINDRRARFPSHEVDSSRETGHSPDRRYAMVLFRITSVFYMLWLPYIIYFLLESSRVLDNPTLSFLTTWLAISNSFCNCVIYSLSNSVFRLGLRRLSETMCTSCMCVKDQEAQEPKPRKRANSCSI

Row | Compound | Brain/Plasma Ratio ([1]; PO dose 10 mg/kg) | pEC50 (recombinant GPR52) | inhibition at 10 mg/kg (male C57/BL6 mice) | further results
1 | NC(=O)c1cccc2c1CCN2c1cc(Cc2cccc(C(F)(F)F)c2)ccn1 [Compound 5, 1-(4-(3-(Trifluoromethyl)benzyl)pyridin-2-yl)indoline-4-carboxamide] |  |  |  | Brain/Plasma Ratio ([1]; PO dose 3 mg/kg): 4.49
2 | NC(=O)c1cccc2c1CCN2c1cc(Cc2ccc(F)c(Cl)c2)ccn1 [Compound 58, 1-(4-(3-Chloro-4-fluorobenzyl)pyridin-2-yl)indoline-4-carboxamide] | 7.76 |  |  | 
3 | COc1ccc(Cc2ccnc(N3CCc4c(C(=O)NCCO)cccc43)c2)cc1F [Compound 69, 1-(4-(3-Fluoro-4-methoxybenzyl)pyridin-2-yl)-N-(2-hydroxyethyl)indoline-4-carboxamide] | 0.87 | 8.51 |  | 
4 | CC(=O)c1cccc(Cc2ccnc(N3CCc4c(C(N)=O)cccc43)c2)c1 [Compound 78, 1-(4-(3-Acetylbenzyl)pyridin-2-yl)indoline-4-carboxamide] | 1.36 | 7.95 | 72% | 
5 | O=C(NCCO)c1cccc2c1CCN2c1cc(Cc2cc(F)c(F)c(F)c2)ccn1 [Compound 92, N-(2-Hydroxyethyl)-1-(4-(3,4,5-trifluorobenzyl)pyridin-2-yl)indoline-4-carboxamide] | 3.00 | 8.05 | 65% | 
6 | O=C(NCCO)c1c(F)ccc2c1CCN2c1cc(Cc2cccc(C(F)(F)F)c2)ccn1 [Compound 108, 5-Fluoro-N-(2-hydroxyethyl)-1-(4-(3-(trifluoromethyl)benzyl)pyridin-2-yl)indoline-4-carboxamide] | 1.67 |  |  | 
7 | O=C(CCCN1CCC(O)(c2ccc(Cl)cc2)CC1)c1ccc(F)cc1 [haloperidol, reference compound] |  |  |  | prolactin levels (male Sprague Dawley rats): increased; catalepsy: average latency to move both forepaws (male Sprague-Dawley rats): increased

Further lines, with some results ahead:

Row | Brain/Plasma Ratio ([1]; PO dose 10 mg/kg) | pEC50 (recombinant GPR52) | Compound | inhibition at 10 mg/kg (male C57/BL6 mice) | further results
8 | 12.40 |  | NC(=O)c1cccc2c1CCN2c1cc(Cc2cc(F)cc(Cl)c2)ccn1 [Compound 42, 1-(4-(3-Chloro-5-fluorobenzyl)pyridin-2-yl)indoline-4-carboxamide] |  | 
9 | 5.45 | 8.01 | O=C(NCCO)c1cccc2c1CCN2c1cc(Cc2cc(F)cc(Cl)c2)ccn1 [Compound 43, 1-(4-(3-Chloro-5-fluorobenzyl)pyridin-2-yl)-N-(2-hydroxyethyl)indoline-4-carboxamide] | 79% | 
10 | 4.67 |  | NC(=O)c1cccc2c1CCN2c1cc(Cc2cncc(C(F)(F)F)c2)ccn1 [Compound 47, 1-(4-((5-(Trifluoromethyl)pyridin-3-yl)methyl)pyridin-2-yl)indoline-4-carboxamide] |  | 
11 | 6.32 | 8.25 | COc1ccc(Cc2ccnc(N3CCc4c(C(N)=O)cccc43)c2)cc1F [Compound 54, 1-(4-(3-Fluoro-4-methoxybenzyl)pyridin-2-yl)indoline-4-carboxamide] | 66% | 
12 | 0.16 |  | O=C(NC1CCN(CCO)CC1)c1cccc2c1CCN2c1cc(Cc2ccc3c(c2)CCO3)ccn1 [Compound 79, 1-(4-((2,3-Dihydrobenzofuran-5-yl)methyl)pyridin-2-yl)-N-(1-(2-hydroxyethyl)piperidin-4-yl)indoline-4-carboxamide] |  | 
13 | 2.85 | 7.91 | O=C(NC[C@@H](F)CO)c1cccc2c1CCN2c1cc(Cc2cc(F)c(F)c(F)c2)ccn1 [Compound 166, (R)—N-(2-Fluoro-3-hydroxypropyl)-1-(4-(3,4,5-trifluorobenzyl)pyridin-2-yl)indoline-4-carboxamide] | 70% | 
